Our source for the glass transition temperature values is the PolyMetriX glass transition set.

In turn, `*C(=O)Nc1ccc(Oc2ccc(C(C)(C)c3ccc(Oc4ccc(NC(=O)c5ccc6c(c5)C(=O)N(c5ccc(-c7sc(-c8ccc(N9C(=O)c%10ccc(*)cc%10C9=O)cc8)c(-c8ccccc8)c7-c7ccccc7)cc5)C6=O)cc4)cc3)cc2)cc1` (repeat unit) registered a glass transition temperature of 287.00 °C.

`*C(=O)c1ccc(Oc2ccc(-c3ccc(Oc4ccc(C(=O)c5ccc6nc(*)ccc6c5)cc4)cc3)cc2)cc1` (repeat unit) came in with a glass transition temperature of 155.00 °C.

For `*C(=O)c1ccc(Oc2ccc(C(C)(C)c3ccc(Oc4ccc(*)s4)cc3)cc2)cc1` (repeat unit), the glass transition temperature came to 151.00 °C.

For the compound `*C(=O)c1ccc2c(c1)C(=O)N(c1ccc(Oc3ccc(C(C)(C)c4ccccc4)cc3)c(N3C(=O)c4ccc(*)cc4C3=O)c1)C2=O` (repeat unit), the glass transition temperature stood at 267.00 °C.

`*Oc1c(C(C)C)cc(C(=O)c2cccc(C(=O)c3ccc(*)cc3)c2)cc1C(C)C` (repeat unit) gave a glass transition temperature of 132.00 °C.

`*Oc1cc(OC(=O)c2ccc(Oc3ccc(C4(c5ccc(Oc6ccc(C(*)=O)cc6)cc5)CCC(C(C)(C)C)CC4)cc3)cc2)ccc1C12CC3CC(CC(C3)C1)C2` (repeat unit) returned a glass transition temperature of 180.00 °C.

Regarding `*Oc1ccc(C(C)(C)c2ccc(Oc3ccc(C(=O)c4ccc(C(c5ccc(C(=O)c6ccc(*)cc6)cc5)(C(F)(F)F)C(F)(F)F)cc4)cc3)cc2)cc1` (repeat unit), the glass transition temperature is 181.00 °C.

The compound `*Oc1ccc(C(C)(C)c2ccc(Oc3ccc(C(=O)c4cccc(C(=O)c5ccc(*)cc5)c4)cc3)cc2)cc1` (repeat unit) registered a glass transition temperature of 153.00 °C.

`*Oc1ccc(C(C)(C)c2ccc(Oc3ccc(C(=O)c4cccc5cccc(C(=O)c6ccc(*)cc6)c45)cc3)cc2)cc1` (repeat unit): the glass transition temperature stood at 210.50 °C.

Take `*Oc1ccc(C(C)(C)c2ccc(Oc3ccc(C(=O)c4ccccc4-c4ccccc4C(=O)c4ccc(*)cc4)cc3)cc2)cc1` (repeat unit): the glass transition temperature was 172.00 °C.

In turn, `*Oc1ccc(C(c2ccc(Oc3ccc(C(=O)c4cccc(-c5cccc(C(=O)c6ccc(*)cc6)c5)c4)cc3)cc2)(C(F)(F)F)C(F)(F)F)cc1` (repeat unit) had a glass transition temperature of 159.00 °C.

In the case of `*Oc1ccc(C2(C)CCC(C(C)(C)c3ccc(Oc4ccc(C(=O)c5ccc(*)cc5)cc4)cc3)CC2)cc1` (repeat unit), the glass transition temperature is 200.00 °C.

For the compound `*Oc1ccc(C2(c3ccc(Oc4ccc(C(=O)c5cccc(-c6cccc(C(=O)c7ccc(*)cc7)c6)c5)cc4)cc3)c3ccccc3-c3ccccc32)cc1` (repeat unit), the glass transition temperature is 212.00 °C.

Compound `*Oc1ccc(C2(c3ccc(Oc4ccc(C(=O)c5cccc(C(=O)c6ccc(*)cc6)c5)cc4)c(C)c3)CCC3CCCCC3C2)cc1C` (repeat unit) returned a glass transition temperature of 185.00 °C.

Regarding `*Oc1ccc(C2(c3ccc(Oc4ccc(C(=O)c5cccc(C(=O)c6ccc(*)cc6)c5)cc4)c(C)c3)c3ccccc3-c3ccccc32)cc1C` (repeat unit), the glass transition temperature was determined as 217.00 °C.

Consider `*Oc1ccc(N(c2ccccc2)c2ccc(-c3ccc(N(c4ccccc4)c4ccc(*)cc4)cc3)cc2)cc1` (repeat unit), for which the glass transition temperature came out at 218.00 °C.

The compound `*Oc1ccc(S(=O)(=O)c2ccc(Oc3ccc(C(c4ccc(*)c(Br)c4)(C(F)(F)F)C(F)(F)F)cc3Br)cc2)cc1` (repeat unit) displayed a glass transition temperature of 197.50 °C.

Compound `*Oc1ccc(S(=O)(=O)c2ccc(Oc3ccc(C(c4ccc(*)cc4)(C(F)(F)F)C(F)(F)F)cc3)cc2C(O)(C(F)(F)F)C(F)(F)F)c(C(O)(C(F)(F)F)C(F)(F)F)c1` (repeat unit) returned a glass transition temperature of 148.00 °C.

In turn, `*Oc1ccc(S(=O)(=O)c2ccc(Oc3ccc(C(c4ccccc4)(c4ccccc4)c4ccc(*)cc4)cc3)cc2)cc1` (repeat unit) registered a glass transition temperature of 230.00 °C.

Turning to `*Oc1ccc(S(=O)(=O)c2ccc(Oc3ccc(C4(c5ccc(*)cc5)C5CC6CC(C5)CC4C6)cc3)cc2)cc1` (repeat unit), the glass transition temperature is 297.00 °C.

`*Oc1ccc(S(=O)(=O)c2ccc(Oc3ccc(C4(c5ccc(*)cc5)CCCC4)cc3)cc2)cc1` (repeat unit): the glass transition temperature amounted to 230.00 °C.

`*Oc1ccc(S(=O)(=O)c2ccc(Oc3ccc(Cc4ccc(*)cc4)cc3)cc2)cc1` (repeat unit): the glass transition temperature came out at 189.6 °C.

The compound `*c1ccc(-c2ccc(-c3ccc(-c4ccc(-c5ccc6c(c5)C(=O)N(c5ccc(Oc7ccc(C(C)(C)c8ccc(Oc9ccc(N%10C(=O)c%11ccc(*)cc%11C%10=O)cc9)cc8)cc7)cc5)C6=O)cc4)cc3)cc2)cc1` (repeat unit) returned a glass transition temperature of 236.00 °C.

Consider `*c1ccc(Oc2ccc(C(=O)c3ccc(Oc4ccc(-c5c6c(c(*)c7ccccc57)C(=O)N(C)C6=O)cc4)cc3)cc2)cc1` (repeat unit), for which the glass transition temperature worked out at 283.00 °C.

Compound `*c1ccc(Oc2ccc(C(=O)c3ccc(Oc4ccc(-c5c6c(c(*)c7ccccc57)C(=O)N(CCCCCCCCCCCC)C6=O)cc4)cc3)cc2)cc1` (repeat unit) had a glass transition temperature of 147.00 °C.

On to `*c1ccc(Oc2ccc(C(=O)c3ccc(Oc4ccc(C5(*)OC(=O)c6ccccc65)cc4)cc3)cc2)cc1` (repeat unit), for which the glass transition temperature came out at 218.00 °C.

`*c1ccc(Oc2ccc(C(C)(C)c3ccc(Oc4ccc(N5C(=O)CC(=O)N(*)C5=S)cc4)cc3)cc2)cc1` (repeat unit) had a glass transition temperature of 150.00 °C.

For the compound `*c1ccc(Oc2ccc(C(C)(C)c3ccc(Oc4ccc(N5C(=O)c6ccc(Oc7ccc8c(c7)C(=O)N(*)C8=O)cc6C5=O)cc4)cc3)cc2)cc1` (repeat unit), the glass transition temperature worked out at 227.50 °C.

With `*c1ccc(Oc2ccc(C(c3ccc(Oc4ccc(-c5cccc(*)n5)cc4C(F)(F)F)cc3)(C(F)(F)F)C(F)(F)F)cc2)c(C(F)(F)F)c1` (repeat unit), the glass transition temperature was 153.00 °C.

In the case of `*c1ccc(Oc2ccc(C(c3ccc(Oc4ccc(-c5nnc(*)c6c(-c7ccc(F)cc7)c(-c7ccc(F)cc7)c(-c7ccc(F)cc7)c(-c7ccc(F)cc7)c56)cc4)cc3)(C(F)(F)F)C(F)(F)F)cc2)cc1` (repeat unit), the glass transition temperature was found to be 288.00 °C.

The compound `*c1ccc(Oc2ccc(C(c3ccc(Oc4ccc(-c5nnc(*)n5-c5ccc(S(=O)(=O)c6ccccc6)cc5)cc4)cc3)(C(F)(F)F)C(F)(F)F)cc2)cc1` (repeat unit) showed a glass transition temperature of 211.00 °C.

The compound `*c1ccc(Oc2ccc(C3(c4ccc(Oc5ccc(-c6nc(-c7ccccn7)nnc6*)cc5)cc4)c4ccccc4-c4ccccc43)cc2)cc1` (repeat unit) gave a glass transition temperature of 277.00 °C.

With `*c1ccc(Oc2ccc(C3(c4ccc(Oc5ccc(N6C(=O)c7ccc(Oc8ccc(C9(c%10ccc(Oc%11ccc%12c(c%11)C(=O)N(*)C%12=O)cc%10)CCCCCCCCCCC9)cc8)cc7C6=O)cc5)cc4)CCC(C(C)(C)C)CC3)cc2)cc1` (repeat unit), the glass transition temperature turned out to be 254.00 °C.

Compound `*c1ccc(Oc2ccc(N3C(=O)CC4C(CC5C(=O)N(*)C(=O)C54)C3=O)cc2)cc1` (repeat unit) showed a glass transition temperature of 350.00 °C.

Regarding `*c1cccc(C(=O)c2cccc(-n3c(=O)c4cc5c(=O)n(*)c(=O)c5cc4c3=O)c2)c1` (repeat unit), the glass transition temperature stood at 321.00 °C.
